Patent US11000033B2, “Ketone or oxime compound, and herbicide” (NISSAN CHEMICAL CORPORATION, priority 2014, dated 2021)

How the values were obtained:
Format in all cases: in vivo
[1] = test system: Cyperus difformis; experiment: Test Example 3: herbicidal effect by foliage application, Wagner pot (symbol E); settings: application herbicide amount 320 g/ha
In short: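 Foliar spray of water-diluted emulsion formulation at a predetermined herbicide amount onto 14-day-old plants in flooded alluvial soil (water depth 0.1–0.5 cm), greenhouse 25–30 °C; rice sown alongside. Scored 3 wk post-application on set criteria.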

[2] = test system: Amaranthus retroflexus; experiment: Test Example 5: herbicidal effect by foliage application, plastic box (symbol N); settings: 320 g/ha, 3 weeks after application
In short: (§1)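 Emulsion formulation, diluted with water to the intended rate, was applied uniformly to leaves by small sprayer. Recipients were 14-day greenhouse-grown seedlings (25° C. to 30° C.). Assessment followed at 3 weeks.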

[3] = test system: Apera spica-venti; experiment: Test Example 4: herbicidal effect by soil treatment (symbol L); settings: for L: Apera spica-venti, herbicidal effect grade: 320 g/ha
In short: (§2)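 Seeds were sown in sterilized diluvial soil, covered with about 1.5 cm of soil, and the soil surface was sprayed with a water-diluted emulsion of the compound at a predetermined rate. Plants grew in a greenhouse at 25° C. to 30° C.; effects were scored visually 3 weeks after application.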

[4] = test system: rapeseed; experiment: Test Example 4: effect on crop by soil treatment (symbol g); settings: for g: rapeseed, effect grade on crop: 320 g/ha
In short: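 Soil-treatment setup: crop and weed seeds were spot-sown into sterilized diluvial soil, then buried beneath approximately 1.5 cm of it, and the boxes were housed in a 25–30° C. greenhouse.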

[5] = test system: Amaranthus retroflexus; experiment: Test Example 4: herbicidal effect by soil treatment (symbol N); settings: for N: Amaranthus retroflexus, herbicidal effect grade: 320 g/ha
In short: as §2

[6] = test system: Echinochloa oryzacola Vasing.; experiment: Test Example 1: herbicidal activity, application before weed generation in submerged conditions (symbol A); settings: application herbicide amount 320 g/ha
In short: (§3)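 Steps: alluvial soil flooded to 4 cm; weed seeds sown together; rice seedlings (2.5 leaf) transplanted; diluted emulsion applied to water surface the same day as sowing; plants grown at 25–30 °C in greenhouse; herbicidal effect rated on a 0–5 scale at 3 weeks.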

[7] = test system: directly sowed rice plant; experiment: Test Example 3: effect on crop by foliage application, Wagner pot (symbol b); settings: application herbicide amount 320 g/ha
In short: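 Steps: fill a 1/10000-are Wagner pot with alluvial soil; add water and mix to submerge at 0.1–0.5 cm depth; sow rice plus Echinochloa crus-galli var. crus-galli, Leptochloa chinensis and Cyperus difformis; grow in a 25–30 °C greenhouse.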

[8] = test system: Alopecurus myosuroides; experiment: Test Example 5: herbicidal effect by foliage application, plastic box (symbol J); settings: 320 g/ha, 3 weeks after application
In short: as §1

[9] = test system: Digitaria ciliaris; experiment: Test Example 4: herbicidal effect by soil treatment (symbol F); settings: for F: Digitaria ciliaris, herbicidal effect grade: 320 g/ha
In short: as §2

[10] = test system: Avena fatua; experiment: Test Example 5: herbicidal effect by foliage application, plastic box (symbol I); settings: 320 g/ha, 3 weeks after application
In short: as §1

[11] = test system: Monochoria vaginalis; experiment: Test Example 1: herbicidal activity, application before weed generation in submerged conditions (symbol C); settings: application herbicide amount 320 g/ha
In short: as §3

[12] = test system: Monochoria vaginalis; experiment: Test Example 2: herbicidal activity, application during weed generation in submerged conditions (symbol C); settings: Table 23; application herbicide amount 320 g/ha; grade 0-5 by criteria of Test Example 1
In short: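 Paddy pot test, submerged (4 cm water), alluvial soil, mixed sowing; greenhouse 25–30° C. Emulsion formulation diluted to predetermined rate, applied onto floodwater at 1–2 leaf stage. Visual herbicidal rating at 3 wk post-treatment.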

[13] = test system: Echinochloa crus-galli var. crus-galli; experiment: Test Example 5: herbicidal effect by foliage application, plastic box (symbol H); settings: 320 g/ha, 3 weeks after application
In short: as §1

[14] = application herbicide amount 320 g/ha

SMILES	herbicidal effect on E, grade 0-5 [1]	N: Amaranthus retroflexus, herbicidal effect grade [2]	L (Apera spica-venti) herbicidal effect grade [3, 14]	g (rapeseed) effect on crop grade [4, 14]	N (Amaranthus retroflexus) herbicidal effect grade [5, 14]	Herbicidal effect grade, A: Echinochloa oryzacola Vasing. [6]	effect on crop b (directly sowed rice plant), grade 0-5 [7]	J: Alopecurus myosuroides, herbicidal effect grade [8]	F (Digitaria ciliaris) herbicidal effect grade [9, 14]	I: Avena fatua, herbicidal effect grade [10]	Herbicidal effect grade, C: Monochoria vaginalis [11]	Herbicidal effect grade, C: Monochoria vaginalis [12]	H: Echinochloa crus-galli var. crus-galli, herbicidal effect grade [13]	N: Amaranthus retroflexus, herbicidal effect (criteria 0-5) [2]	L: Apera spica-venti, herbicidal effect grade [3]	g: rapeseed, effect grade on crop [4]	N: Amaranthus retroflexus, herbicidal effect grade [5]	J: Alopecurus myosuroides, herbicidal effect (criteria 0-5) [8]	F: Digitaria ciliaris, herbicidal effect grade [9]	I: Avena fatua, herbicidal effect (criteria 0-5) [10]	further results
CON=C(C)CC1CC(OC(=O)COc2cccc(OC)c2)=C(c2c(C)cc(C)cc2C)C1=O (centres unmarked) [1-068]	5 (Herbicidal ratio of 90% or more (almost completely withered))	4 (Herbicidal ratio of 70% or higher and lower than 90%)	5 (Herbicidal ratio of 90% or more (almost completely withered))	4 (Herbicidal ratio of 70% or higher and lower than 90%)	4 (Herbicidal ratio of 70% or higher and lower than 90%)	5 (Herbicidal ratio of 90% or more (almost completely withered))	5 (Herbicidal ratio of 90% or more (almost completely withered))	5 (Herbicidal ratio of 90% or more (almost completely withered))	5 (Herbicidal ratio of 90% or more (almost completely withered))	5 (Herbicidal ratio of 90% or more (almost completely withered))	3 (Herbicidal ratio of 40% or higher and lower than 70%)	3 (Herbicidal ratio of 40% or higher and lower than 70%)	5 (Herbicidal ratio of 90% or more (almost completely withered))	–	–	–	–	–	–	–	–
CON=C(C)CC1CC(OC(=O)C=Cc2ccco2)=C(c2c(C)cc(C)cc2C)C1=O (centres unmarked) [1-091]	5 (Herbicidal ratio of 90% or more (almost completely withered))	–	–	–	–	5 (Herbicidal ratio of 90% or more (almost completely withered))	5 (Herbicidal ratio of 90% or more (almost completely withered))	–	–	–	0 (Herbicidal ratio of 5% or lower (almost no effect))	0 (Herbicidal ratio of 5% or lower (almost no effect))	–	3 (Herbicidal ratio of 40% or higher and lower than 70%)	5 (Herbicidal ratio of 90% or more (almost completely withered))	3 (Herbicidal ratio of 40% or higher and lower than 70%)	0 (Herbicidal ratio of 5% or lower (almost no effect))	5 (Herbicidal ratio of 90% or more (almost completely withered))	5 (Herbicidal ratio of 90% or more (almost completely withered))	5 (Herbicidal ratio of 90% or more (almost completely withered))	H: Echinochloa crus-galli var. crus-galli, herbicidal effect (criteria 0-5) [13]: 5 (Herbicidal ratio of 90% or more (almost completely withered))
CON=C(C)CC1CC(OC(=O)COc2ccc(C=O)cc2)=C(c2c(C)cc(C)cc2C)C1=O (centres unmarked) [1-079]	5 (Herbicidal ratio of 90% or more (almost completely withered))	–	–	–	–	5 (Herbicidal ratio of 90% or more (almost completely withered))	5 (Herbicidal ratio of 90% or more (almost completely withered))	–	–	–	3 (Herbicidal ratio of 40% or higher and lower than 70%)	3 (Herbicidal ratio of 40% or higher and lower than 70%)	–	0 (Herbicidal ratio of 5% or lower (almost no effect))	5 (Herbicidal ratio of 90% or more (almost completely withered))	4 (Herbicidal ratio of 70% or higher and lower than 90%)	4 (Herbicidal ratio of 70% or higher and lower than 90%)	5 (Herbicidal ratio of 90% or more (almost completely withered))	5 (Herbicidal ratio of 90% or more (almost completely withered))	5 (Herbicidal ratio of 90% or more (almost completely withered))	H: Echinochloa crus-galli var. crus-galli, herbicidal effect (criteria 0-5) [13]: 5 (Herbicidal ratio of 90% or more (almost completely withered))
CON=C(CC1CC(O)=C(c2c(C)cc(Br)cc2C)C1=O)C1CC1 (centres unmarked) [9-002]	–	3 (Herbicidal ratio of 40% or higher and lower than 70%)	–	–	–	5 (Herbicidal ratio of 90% or more (almost completely withered))	–	5 (Herbicidal ratio of 90% or more (almost completely withered))	–	5 (Herbicidal ratio of 90% or more (almost completely withered))	0 (Herbicidal ratio of 5% or lower (almost no effect))	0 (Herbicidal ratio of 5% or lower (almost no effect))	5 (Herbicidal ratio of 90% or more (almost completely withered))	–	–	–	–	–	–	–	E herbicidal effect grade ([1]; Table 24): 5 (Herbicidal ratio of 90% or more (almost completely withered)); Herbicidal effect grade, L: Apera spica-venti [3, 14]: 5 (Herbicidal ratio of 90% or more (almost completely withered)); Effect on crop grade, g: rapeseed [4, 14]: 0 (Herbicidal ratio of 5% or lower (almost no effect)); Herbicidal effect grade, N: Amaranthus retroflexus [5, 14]: 0 (Herbicidal ratio of 5% or lower (almost no effect)); b (directly sowed rice plant) effect on crop grade ([7]; Table 24): 5 (Herbicidal ratio of 90% or more (almost completely withered)); Herbicidal effect grade, F: Digitaria ciliaris [9, 14]: 5 (Herbicidal ratio of 90% or more (almost completely withered))
CC(CC1CC(O)=C(c2c(C)cc(C)cc2C)C1=O)=NOC(C)C (centres unmarked) [1-052]	5 (Herbicidal ratio of 90% or more (almost completely withered))	0 (Herbicidal ratio of 5% or lower (almost no effect))	5 (Herbicidal ratio of 90% or more (almost completely withered))	3 (Herbicidal ratio of 40% or higher and lower than 70%)	3 (Herbicidal ratio of 40% or higher and lower than 70%)	5 (Herbicidal ratio of 90% or more (almost completely withered))	5 (Herbicidal ratio of 90% or more (almost completely withered))	5 (Herbicidal ratio of 90% or more (almost completely withered))	5 (Herbicidal ratio of 90% or more (almost completely withered))	5 (Herbicidal ratio of 90% or more (almost completely withered))	0 (Herbicidal ratio of 5% or lower (almost no effect))	0 (Herbicidal ratio of 5% or lower (almost no effect))	5 (Herbicidal ratio of 90% or more (almost completely withered))	–	–	–	–	–	–	–	–
